Four compounds from PMC5908784, “Extracellular loops 2 and 3 of the calcitonin receptor selectively modify agonist binding and efficacy” (Biochemical Pharmacology, 2018) can be followed below.

Common to all, as to assay type: cell-based
The target of one test is T1, hCTR F356A (Homo sapiens, UniProt P30988, F356A).
T1 construct: c-Myc (N); expressed in transfected cells
T1 sequence (P30988 25-474 F356A): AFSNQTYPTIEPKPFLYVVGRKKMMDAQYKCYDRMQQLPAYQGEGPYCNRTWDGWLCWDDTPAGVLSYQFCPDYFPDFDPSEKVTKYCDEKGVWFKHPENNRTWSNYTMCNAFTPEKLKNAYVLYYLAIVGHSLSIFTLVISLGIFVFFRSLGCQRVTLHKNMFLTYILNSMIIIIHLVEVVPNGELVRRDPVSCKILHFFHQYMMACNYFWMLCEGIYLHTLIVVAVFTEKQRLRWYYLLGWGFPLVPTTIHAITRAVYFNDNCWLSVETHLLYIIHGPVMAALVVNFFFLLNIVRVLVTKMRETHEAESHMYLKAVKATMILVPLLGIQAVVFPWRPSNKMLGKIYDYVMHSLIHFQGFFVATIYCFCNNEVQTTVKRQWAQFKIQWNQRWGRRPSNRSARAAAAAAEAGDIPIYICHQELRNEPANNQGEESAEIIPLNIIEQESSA
The experiment in a line: cAMP accumulation. The note with it: mean ± S.E.M.; for Emax: cAMP maximal response, SEM; for EC50: cAMP, CV1-FlpIn cells, 30 min, IBMX. The procedure:
(§1) Cells (2.5 × 10^4 cells/well) were seeded into 96-well plates and incubated overnight. Cells were stimulated with increasing concentrations of ligands for 30 min in the presence of IBMX. The liquid was discarded, changed to absolute ethanol and volatilized to dryness at room temperature. […] Data were normalized to the response of 100 μM forskolin.
(§2) Data were corrected for radioligand occupancy using the Cheng-Prusoff equation in Prism; as such data are reported as pKi. Emax and EC50 were estimated from concentration-response curves using with a 3-parameter logistic equation in Prism (v7). These values are a composite of functional affinity, efficacy and stimulus response coupling. […] Significance was accepted at P < 0.05.
(In general: Cyclic AMP is a second messenger, typically raised through Gs and lowered through Gi signalling.)

The next test deals with T2, hCTR F359A (Homo sapiens, UniProt P30988, F359A).
T2 construct: expressed in transfected cells
T2 sequence (P30988 25-474 F359A): T1 sequence (P30988 25-474 F356A) with A332F, F335A
The experiment in a line: cAMP accumulation. The note with it: mean ± S.E.M.; for Emax: cAMP maximal response, SEM; for EC50: cAMP, CV1-FlpIn cells, 30 min, IBMX. The procedure:
as §1, §2

The next test has as its target T3, hCTR T280A (Homo sapiens, UniProt P30988, T280A).
T3 construct: expressed in transfected cells
T3 sequence (P30988 25-474 T280A): T1 sequence (P30988 25-474 F356A) with T256A, A332F
The experiment in a line: cAMP accumulation. The note with it: mean ± S.E.M.; for Emax: cAMP maximal response, SEM; for EC50: cAMP, CV1-FlpIn cells, 30 min, IBMX. The procedure: as §1, §2

The target in another test is T4, hCTR V283A (Homo sapiens, UniProt P30988, V283A).
T4 construct: expressed in transfected cells
T4 sequence (P30988 25-474 V283A): T1 sequence (P30988 25-474 F356A) with V259A, A332F
Nature of the test: cAMP accumulation. The note with it: mean ± S.E.M.; for Emax: cAMP maximal response, SEM; for EC50: cAMP, CV1-FlpIn cells, 30 min, IBMX. The procedure:
as §1, §2

The next test deals with T5, hCTR L368A (Homo sapiens, UniProt P30988, L368A).
T5 construct: c-Myc (N); expressed in transfected cells
T5 sequence (P30988 25-474 L368A): T1 sequence (P30988 25-474 F356A) with A332F, L344A
The experiment in a line: ERK1/2 phosphorylation. The note with it: CV1-FlpIn cells, mean ± S.E.M.; for Emax: pERK maximal response; for EC50: pERK, three-parameter logistic fit. In short, it runs like this: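 Read-out is phospho-ERK1/2, reported relative to the 10% FBS maximum taken at 6 min. Wells held 2.5 × 10^4 cells seeded the night before. Potency and efficacy reflect functional affinity, efficacy and stimulus-response coupling combined.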

Positions count from the first letter of the chain named. Where a SMILES comes first, the peptide text is derived from it. Bridges are numbered along the chain shown (N, C = ends).

A word on the Emax: it is the greatest response seen or fitted, relative to the assay's reference. `CC[C@H](C)[C@H](NC(=O)[C@H](C)NC(=O)[C@@H](NC(=O)[C@H](CCC(N)=O)NC(=O)[C@@H]1CCCN1C(=O)[C@H](Cc1ccccc1)NC(=O)[C@@H](NC(=O)[C@H](Cc1c[nH]cn1)NC(=O)[C@H](Cc1ccccc1)NC(=O)[C@H](CCCCN)NC(=O)[C@H](CC(N)=O)NC(=O)[C@H](Cc1ccccc1)NC(=O)[C@H](CC(=O)O)NC(=O)[C@H](CCC(N)=O)NC(=O)[C@@H](NC(=O)[C@H](Cc1ccc(O)cc1)NC(=O)[C@@H](NC(=O)CNC(=O)[C@H](CC(C)C)NC(=O)[C@H](CCSC)NC(=O)[C@@H]1CSSC[C@H](N)C(=O)NCC(=O)N[C@@H](CC(N)=O)C(=O)N[C@@H](CC(C)C)C(=O)N[C@@H](CO)C(=O)N[C@@H]([C@@H](C)O)C(=O)N1)[C@@H](C)O)[C@@H](C)O)[C@@H](C)O)[C@@H](C)O)C(=O)NCC(=O)N[C@H](C(=O)NCC(=O)N[C@@H](C)C(=O)N1CCC[C@H]1C(N)=O)C(C)C` [hCT]: the maximal effect (Emax) is 131 ± 8% at hCTR F356A; 130 ± 9% on hCTR F359A; 97 ± 6% at hCTR T280A; 90 ± 7% at hCTR V283A; 126 ± 7% on hCTR L368A.
What is called EC50 is the concentration needed to bring the measured effect to its halfway point. The low end stands for higher potency in that assay, the high end for lower potency in that assay. `CC(C)C[C@H](NC(=O)CNC(=O)[C@H](C)NC(=O)[C@H](CC(C)C)NC(=O)[C@H](CCCNC(=N)N)NC(=O)[C@H](Cc1cnc[nH]1)NC(=O)[C@@H](NC(=O)[C@@H](NC(=O)[C@@H]1CSSC[C@H](NC(=O)[C@H](C)N)C(=O)N[C@@H](CC(=O)O)C(=O)N[C@@H]([C@@H](C)O)C(=O)N[C@@H](C)C(=O)N[C@@H]([C@@H](C)O)C(=O)N1)C(C)C)[C@@H](C)O)C(=O)N[C@@H](CC(C)C)C(=O)N[C@@H](CO)C(=O)N[C@@H](CCCNC(=N)N)C(=O)N[C@@H](CO)C(=O)NCC(=O)NCC(=O)N[C@H](C(=O)N[C@H](C(=O)N[C@@H](CCCCN)C(=O)N[C@@H](CC(N)=O)C(=O)N[C@@H](CC(N)=O)C(=O)N[C@@H](Cc1ccccc1)C(=O)N[C@H](C(=O)N1CCC[C@H]1C(=O)N[C@H](C(=O)N[C@@H](CC(N)=O)C(=O)N[C@H](C(=O)NCC(=O)N[C@@H](CO)C(=O)N[C@@H](CCCCN)C(=O)N[C@@H](C)C(=O)N[C@@H](Cc1ccccc1)C(N)=O)C(C)C)[C@@H](C)O)C(C)C)C(C)C)C(C)C` [hαCGRP]: the maximum response (Emax) at hCTR F356A came out at 128 ± 10%; at hCTR F359A, 53 ± 8%; at hCTR T280A it was 107 ± 21%; on hCTR V283A, 130 ± 19%; on hCTR L368A, 84 ± 16%. Moreover, the half-maximal effective concentration (EC50) on hCTR F356A was 66.1 nM; on hCTR F359A, 18.6 nM; on hCTR T280A, 3.31 nM; on hCTR V283A, 12.9 nM; at hCTR L368A it was 85.1 nM.
Turning to `CSCC[C@H](NC(=O)CNC(=O)[C@H](CO)NC(=O)[C@H](Cc1ccccc1)NC(=O)[C@H](CCCNC(=N)N)NC(=O)[C@H](Cc1c[nH]cn1)NC(=O)[C@H](Cc1ccccc1)NC(=O)[C@H](CC(N)=O)NC(=O)[C@H](CC(N)=O)NC(=O)[C@H](CC(C)C)NC(=O)[C@H](CC(N)=O)NC(=O)[C@H](CCCNC(=N)N)NC(=O)[C@H](Cc1c[nH]c2ccccc12)NC(=O)[C@H](Cc1ccc(O)cc1)NC(=O)[C@H](C)NC(=O)[C@H](CO)NC(=O)[C@H](CC(C)C)NC(=O)[C@@H](NC(=O)[C@@H]1CSSC[C@H](N)C(=O)N[C@@H](CO)C(=O)N[C@@H](CC(N)=O)C(=O)N[C@@H](CC(C)C)C(=O)N[C@@H](CO)C(=O)N[C@@H]([C@@H](C)O)C(=O)N1)C(C)C)C(=O)NCC(=O)N[C@@H](Cc1ccccc1)C(=O)NCC(=O)N1CCC[C@H]1C(=O)N[C@@H](CCC(=O)O)C(=O)N[C@H](C(=O)N1CCC[C@H]1C(N)=O)[C@@H](C)O` [pCT] (H-CSNLSTCVLSAYWRNLNNFHRFSGMGFGPETP-NH2; disulfide 1-7), the Emax on hCTR F356A came out at 100 ± 2%; on hCTR F359A, 113 ± 8%; at hCTR T280A it was 113 ± 5%; on hCTR V283A it was 107 ± 9%; at hCTR L368A, 159 ± 11%. In addition, the EC50 was 0.0316 nM at hCTR F356A; 0.162 nM at hCTR F359A; 0.0398 nM on hCTR T280A; 0.0316 nM on hCTR V283A; 1.95 nM at hCTR L368A.
On to `CC(C)C[C@H](NC(=O)[C@H](CC(N)=O)NC(=O)[C@H](CC(N)=O)NC(=O)[C@H](CO)NC(=O)[C@H](CO)NC(=O)[C@H](CCCNC(=N)N)NC(=O)[C@@H](NC(=O)[C@H](CC(C)C)NC(=O)[C@H](Cc1ccccc1)NC(=O)[C@H](CC(N)=O)NC(=O)[C@H](C)NC(=O)[C@H](CC(C)C)NC(=O)[C@H](CCCNC(=N)N)NC(=O)[C@H](CCC(N)=O)NC(=O)[C@@H](NC(=O)[C@H](C)NC(=O)[C@@H]1CSSC[C@H](NC(=O)[C@@H](N)CCCCN)C(=O)N[C@@H](CC(N)=O)C(=O)N[C@@H]([C@@H](C)O)C(=O)N[C@@H](C)C(=O)N[C@@H]([C@@H](C)O)C(=O)N1)[C@@H](C)O)C(C)C)C(=O)NCC(=O)N1CCC[C@H]1C(=O)N[C@H](C(=O)N[C@@H](CC(C)C)C(=O)N1CCC[C@H]1C(=O)N1CCC[C@H]1C(=O)N[C@H](C(=O)N[C@@H](CC(N)=O)C(=O)N[C@H](C(=O)NCC(=O)N[C@@H](CO)C(=O)N[C@@H](CC(N)=O)C(=O)N[C@H](C(=O)N[C@@H](Cc1ccc(O)cc1)C(N)=O)[C@@H](C)O)C(C)C)[C@@H](C)O)C(C)C` [rAmy], for which the Emax worked out at 126 ± 15% on hCTR F356A; 95 ± 9% on hCTR F359A; 69 ± 8% on hCTR T280A; 77 ± 10% on hCTR V283A; 82 ± 8% at hCTR L368A.
